Data taken from patent publication US9796742B2, “Kinase inhibitors” (Respivert Limited, priority 2012, dated 2017).
Where two headings read alike, the source gives them in different places.

Key:
Syk = Syk (Homo sapiens (Human), UniProt P43405); assay: Syk enzyme inhibition (FRET, Z-LYTE); assay type: biochemical
Experimental: (§1) The enzyme inhibitory activities of compounds disclosed herein are determined by FRET using synthetic peptides labelled with both donor and acceptor fluorophores (Z-LYTE, Invitrogen Ltd., Paisley, UK).
(§2) The inhibitory activities of compounds of the invention against c-Src and Syk enzymes (Invitrogen), are evaluated in a similar fashion to that described hereinabove. The relevant enzyme (3000 ng/mL or 2000 ng/mL respectively, 2.5 μL) is incubated with the test compound (either 4 μg/mL, 0.4 μg/mL, 0.04 μg/mL, or 0.004 μg/mL, 2.5 μL each) for 2 hr at RT. The FRET peptides (8 μM. 2.5 μL), and appropriate ATP solutions (2.5 μL, 800 μM for c-Src, and 60 μM ATP for Syk) are then added to the enzymes/compound mixtures and incubated for 1 hr. Development reagent (protease, 5 μL) is added for 1 hr prior to detection in a fluorescence microplate reader (Varioskan® Flash, ThermoFisher Scientific).
(§3) In all cases, the site-specific protease cleaves non-phosphorylated peptide only and eliminates the FRET signal. Phosphorylation levels of each reaction are calculated using the ratio of coumarin emission (donor) over fluorescein emission (acceptor), for which high ratios indicate high phosphorylation and low ratios indicate low phosphorylation levels. The percentage inhibition of each reaction is calculated relative to non-inhibited control and the 50% inhibitory concentration (IC50 value) is then calculated from the concentration-response curve.

c-Src = c-Src (Homo sapiens (Human), UniProt P12931); assay: c-Src enzyme inhibition (FRET, Z-LYTE); assay type: biochemical
Experimental: as §1, §2, §3

PBMCs [1] = assay: LPS-induced TNFα/IL-8 release in PBMC cells; assay type: cell-based; conditions: Homo sapiens, LPS-stimulated PBMCs
Method in brief: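 Human PBMCs from healthy donors, isolated by density gradient, were pretreated with compound for 2 h and then stimulated with 1 ng/mL LPS (E. coli 0111:B4) for 24 h at 37° C, 5% CO2. Supernatant IL-8 and TNFα were measured by sandwich ELISA, and IC50 was taken from the dose-response curve.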

d-U937 cells = assay: LPS-induced TNFα/IL-8 release in d-U937 cells; assay type: cell-based; conditions: Homo sapiens, dU937, LPS-stimulated d-U937 cells
Experimental: U937 cells, a human monocytic cell line, are differentiated to macrophage-type cells by incubation with phorbol myristate acetate (PMA; 100 ng/mL) for 48 to 72 hr. Cells are pre-incubated with final concentrations of test compound for 2 hr and are then stimulated with 0.1 μg/mL of LPS (from E. Coli: O111:B4, Sigma) for 4 hr. The supernatant is collected for determination of TNFα and IL-8 concentrations by sandwich ELISA (Duo-set, R&D systems). The inhibition of TNFα production is calculated as a percentage of that achieved by 10 μg/mL of BIRB796 at each concentration of test compound by comparison against vehicle control. The relative 50% effective concentration (REC50) is determined from the resultant concentration-response curve. The inhibition of IL-8 production is calculated at each concentration of test compound by comparison with vehicle control. The 50% inhibitory concentration (IC50) is determined from the resultant concentration-response curve.

p38 MAPKα = p38 MAPKα (Homo sapiens (Human), UniProt Q16539); assay: p38 MAPKα enzyme inhibition (FRET, Z-LYTE; Method 2); assay type: biochemical
Experimental: as §1
The inhibitory activities of test compounds against the p38 MAPKα isoform (MAPK14: Invitrogen), are evaluated indirectly by determining the level of activation/phosphorylation of the down-stream molecule, MAPKAP-K2. The p38 MAPKα protein (80 ng/mL, 2.5 μL) is mixed with the test compound (2.5 μL of either 4 μg/mL, 0.4 μg/mL, 0.04 μg/mL or 0.004 μg/mL) for 2 hr at RT. […] The mixture is incubated for 1 hr at RT. Development reagent (protease, 5 μL) is added for 1 hr prior to detection in a fluorescence microplate reader (Varioskan® Flash, ThermoFisher Scientific).
Method 2 This method follows the same steps as Method 1 above, but utilises a higher concentration of the p38 MAPKα protein (2.5 μL of 200 ng/mL protein instead of 2.5 μL of 80 ng/mL protein) for mixing with the test compound.
as §3

GSK3α = GSK3α (Homo sapiens (Human), UniProt P49840); assay: GSK 3α enzyme inhibition (FRET, Z-LYTE; Method 2); assay type: biochemical
Method in brief: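 GSK3-α protein preincubated with compound for 105 min, then Z-LYTE FRET peptide and ATP added for 1 h before protease development for 1 h. Phosphorylation taken from coumarin/fluorescein emission ratio; percent inhibition against uninhibited control and IC50 calculated from concentration-response curves.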

PBMCs [2] = assay: IL-2 and IFN gamma release in CD3/CD28 stimulated PBMC cells; assay type: cell-based; conditions: Homo sapiens
Experimental: PBMCs from healthy subjects are separated from whole blood using a density gradient (Lymphoprep, Axis-Shield Healthcare). Cells are added to a 96 well plate pre-coated with a mixture of CD3/[…] monoclonal antibodies (0.3 μg/mL eBioscience and 3 μg/mL BD Pharmingen respectively). Compound at the desired concentration is then added to the wells and the plate left for 3 days under normal tissue culture conditions. Supernatants are harvested and IL-2 and IFN gamma release determined by Sandwich ELISA (Duo-set, R&D System). The IC50 is determined from the dose response curve.

HT29 cells = assay: IL-1β-induced IL-8 release in HT29 cells; assay type: cell-based; conditions: Homo sapiens, HT-29, IL-1β-stimulated HT29 cells, read-out: IC50 Values for Inhibition of Cytokine Release, HT29 cells IL-8
Experimental: HT29 cells, a human colon adenocarcinorna cell line, are plated in a 96 well plate (24 hrs) and pre-treated with compounds at the desired concentration for 2 hours before addition of 5 ng/mL of IL-1β (Abcam) for 24 hours. Supernatants are harvested for IL-8 quantification by Sandwich ELISA (Duo-set, R&D System). The IC50 is determined from the dose response curve.

[3] = IL-8, read-out: IC50 Values for Inhibition of Cytokine Release, PBMCs IL-8
[4] = TNFα, read-out: IC50 Values for Inhibition of Cytokine Release, PBMCs TNFα
[5] = IL-8, read-out: IC50 Values for Inhibition of Cytokine Release, dU937 cells IL-8
[6] = TNFα (REC50 relative to BIRB796 per method), read-out: IC50 Values for Inhibition of Cytokine Release, dU937 cells TNFα
[7] = IL-2, read-out: IC50 Values for Inhibition of Cytokine Release, PBMCs IL-2
[8] = IFNγ, read-out: IC50 Values for Inhibition of Cytokine Release, PBMCs IFNγ

Chain of GSK3α (P49840 whole entry): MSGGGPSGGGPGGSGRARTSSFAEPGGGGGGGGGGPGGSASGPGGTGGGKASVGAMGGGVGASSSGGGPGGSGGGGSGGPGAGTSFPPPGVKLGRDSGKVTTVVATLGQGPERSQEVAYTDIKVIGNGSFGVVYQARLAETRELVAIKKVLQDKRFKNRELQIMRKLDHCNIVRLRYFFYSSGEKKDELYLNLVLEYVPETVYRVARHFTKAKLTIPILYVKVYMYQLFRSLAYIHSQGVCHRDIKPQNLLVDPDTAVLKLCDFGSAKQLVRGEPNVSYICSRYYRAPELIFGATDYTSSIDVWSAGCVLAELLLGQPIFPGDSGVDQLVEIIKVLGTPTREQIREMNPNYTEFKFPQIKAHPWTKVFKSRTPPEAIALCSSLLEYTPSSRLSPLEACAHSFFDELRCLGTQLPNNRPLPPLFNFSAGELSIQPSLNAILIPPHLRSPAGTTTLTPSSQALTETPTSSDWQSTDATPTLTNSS
Chain of c-Src (P12931 whole entry, looked up): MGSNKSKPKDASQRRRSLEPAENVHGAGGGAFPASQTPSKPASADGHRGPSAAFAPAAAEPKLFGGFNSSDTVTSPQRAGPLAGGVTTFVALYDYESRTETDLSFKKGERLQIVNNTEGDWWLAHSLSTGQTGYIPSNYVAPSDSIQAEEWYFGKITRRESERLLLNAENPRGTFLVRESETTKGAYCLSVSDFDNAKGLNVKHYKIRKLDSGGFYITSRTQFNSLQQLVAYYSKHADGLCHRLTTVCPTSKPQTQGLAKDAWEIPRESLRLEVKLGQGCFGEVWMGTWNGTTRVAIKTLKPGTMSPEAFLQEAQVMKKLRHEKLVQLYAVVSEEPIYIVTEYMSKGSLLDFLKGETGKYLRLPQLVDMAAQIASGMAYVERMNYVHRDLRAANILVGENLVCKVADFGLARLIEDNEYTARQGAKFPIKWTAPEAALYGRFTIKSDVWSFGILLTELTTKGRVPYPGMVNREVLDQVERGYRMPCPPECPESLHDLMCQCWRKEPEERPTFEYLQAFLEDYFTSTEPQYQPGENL
Chain of p38 MAPKα (Q16539 whole entry): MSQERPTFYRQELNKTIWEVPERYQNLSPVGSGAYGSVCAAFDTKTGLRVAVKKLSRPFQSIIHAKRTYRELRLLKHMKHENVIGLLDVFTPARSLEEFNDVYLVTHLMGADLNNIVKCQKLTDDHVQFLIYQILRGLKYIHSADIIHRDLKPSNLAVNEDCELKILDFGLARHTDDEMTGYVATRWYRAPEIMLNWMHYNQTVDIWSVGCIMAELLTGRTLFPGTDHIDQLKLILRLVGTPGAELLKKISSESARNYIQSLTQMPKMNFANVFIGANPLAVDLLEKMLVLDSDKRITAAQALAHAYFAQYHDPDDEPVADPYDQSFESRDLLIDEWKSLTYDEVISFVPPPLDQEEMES

Row | SMILES | IC50 (Syk) [nM] | IC50 (c-Src) [nM] | IC50 (d-U937 cells; [5]) [nM] | IC50 (d-U937 cells; [6]) [nM] | IC50 (p38 MAPKα) [nM] | IC50 (GSK3α) [nM] | IC50 (HT29 cells) [nM] | IC50 (PBMCs [1]; [3]) [nM] | IC50 (PBMCs [1]; [4]) [nM] | IC50 (PBMCs [2]; [7]) [nM] | IC50 (PBMCs [2]; [8]) [nM]
1 | CC(C)(C)c1cc(NC(=O)Nc2ccc(Oc3ccnc(Nc4ccccc4)n3)c3ccccc23)n(-c2ccc(P(C)(C)=O)cc2)n1 [Example 1, 1-(3-(tert-Butyl)-1-(4-(dimethylphosphoryl)phenyl)-1H-pyrazol-5-yl)-3-(4-((2-(phenylamino)pyrimidin-4-yl)oxy)naphthalen-1-yl)urea] | 34 | 15 | 4.9 | 2 | 8 | 1280 | – | 6.9 | 1.3 | – | –
2 | CC(C)(C)c1cc(NC(=O)Nc2ccc(Oc3ccnc(Nc4ccccc4)n3)c3ccccc23)n(-c2cccc(P(C)(C)=O)c2)n1 [Example 2, 1-(3-(tert-Butyl)-1-(3-(dimethylphosphoryl)phenyl)-1H-pyrazol-5-yl)-3-(4-((2-(phenylamino)pyrimidin-4-yl)oxy)naphthalen-1-yl)urea] | – | – | 9.4 | 3.6 | – | 647 | – | – | 4.3 | – | –
3 | COCC(=O)Nc1cc(Oc2ccc(NC(=O)Nc3cc(C(C)(C)C)nn3-c3ccc(P(C)(C)=O)cc3)c3ccccc23)ccn1 [Example 3, N-(4-((4-(3-(3-(tert-Butyl)-1-(4-(dimethylphosphoryl)phenyl)-1H-pyrazol-5-yl)ureido)-naphthalen-1-yl)oxy)pyridin-2-yl)-2-methoxyacetamide] | – | – | 8.6 | 3.6 | – | 16 | – | – | 2.5 | – | –
4 | CC(C)c1cc(NC(=O)Nc2ccc(Oc3ccnc(Nc4ccccc4)n3)c3ccccc23)n(-c2ccc(P(C)(C)=O)cc2)n1 [Example 4, 1-(1-(4-(Dimethylphosphoryl)phenyl)-3-isopropyl-1H-pyrazol-5-yl)-3-(4-((2-(phenylamino)-pyrimidin-4-yl)oxy)naphthalen-1-yl)urea] | – | 12 | – | 19.2 | – | 220 | – | 58.9 | 20.8 | – | –
5 | CC(C)(C)c1cc(NC(=O)Nc2ccc(Oc3ccnc(Nc4ccccc4)c3)c3ccccc23)n(-c2cccc(CP(C)(C)=O)c2)n1 [Example 41, 1-(3-(tert-Butyl)-1-(3-((dimethylphosphoryl)methyl)phenyl)-1H-pyrazol-5-yl)-3-(4-((2-(phenylamino)pyridin-4-yl)oxy)naphthalen-1-yl)urea] | 96 | 56 | – | – | 357 | 4300 | 4.7 | 2.8 | – | 56.4 | –

The next lines start with results.

Row | IC50 (Syk) [nM] | IC50 (c-Src) [nM] | IC50 (d-U937 cells; [5]) [nM] | IC50 (d-U937 cells; [6]) [nM] | IC50 (p38 MAPKα) [nM] | IC50 (GSK3α) [nM] | IC50 (HT29 cells) [nM] | SMILES | IC50 (PBMCs [1]; [3]) [nM] | IC50 (PBMCs [1]; [4]) [nM] | IC50 (PBMCs [2]; [7]) [nM] | IC50 (PBMCs [2]; [8]) [nM]
6 | 63 | 47 | – | – | – | 6980 | 5.6 | CC(C)c1cc(NC(=O)Nc2ccc(Oc3ccnc(Nc4ccccc4)c3)c3ccccc23)n(-c2cccc(CP(C)(C)=O)c2)n1 [Example 42, 1-(1-(3-((Dimethylphosphoryl)methyl)phenyl)-3-isopropyl-1H-pyrazol-5-yl)-3-(4-((2-(phenylamino)pyridin-4-yl)oxy)naphthalen-1-yl)urea] | 5.5 | – | – | –
7 | – | – | – | – | 201 | 8040 | 7.1 | CC(C)(C)c1cc(NC(=O)Nc2ccc(Oc3ccnc(Nc4ccccc4)c3)c3ccccc23)n(-c2cccc(CP3(=O)CCCC3)c2)n1 [Example 44, 1-(3-(tert-Butyl)-1-(3-((1-oxidophospholan-1-yl)methyl)phenyl)-1H-pyrazol-5-yl)-3-(4-((2-(phenylamino)pyridin-4-yl)oxy)naphthalen-1-yl)urea] | 4 | – | – | –
8 | 232 | 87 | – | – | 231 | > 10000 | 4.3 | CC(C)c1cc(NC(=O)Nc2ccc(Oc3ccnc(Nc4cc(OCCN5CCOCC5)cc(OC(F)(F)F)c4)n3)c3ccccc23)n(-c2cccc(CP(C)(C)=O)c2)n1 [Example 48, 1-(1-(3-((Dimethylphosphoryl)methyl)phenyl)-3-isopropyl-1H-pyrazol-5-yl)-3-(4-((2-((3-(2-morpholinoethoxy)-5-(trifluoromethoxy)phenyl)amino)pyrimidin-4-yl)oxy)naphthalen-1-yl)urea] | 1.5 | – | 53.4 | –
9 | 219 | 95 | – | – | 202 | > 10000 | 3.8 | CC(C)c1cc(NC(=O)Nc2ccc(Oc3ccnc(Nc4cc(OCCN5CCOCC5)cc(C(F)(F)F)c4)n3)c3ccccc23)n(-c2cccc(CP(C)(C)=O)c2)n1 [Example 49, 1-(1-(3-((Dimethylphosphoryl)methyl)phenyl)-3-isopropyl-1H-pyrazol-5-yl)-3-(4-((2-((3-(2-morpholinoethoxy)-5-(trifluoromethyl)phenyl)amino)pyrimidin-4-yl)oxy)naphthalen-1-yl)urea] | 1.4 | – | 45.6 | 5.1
10 | 12 | 7 | – | – | 84 | 689 | – | CC(C)(C)c1cc(NC(=O)Nc2ccc(Oc3ccnc(Nc4cc(C(=O)NCCN5CCOCC5)cc(C(F)(F)F)c4)n3)c3ccccc23)n(-c2cccc(CP(C)(C)=O)c2)n1 [Example 58, 3-((4-((4-(3-(3-(tert-Butyl)-1-(3-((dimethylphosphoryl)methyl)phenyl)-1H-pyrazol-5-yl)-ureido)naphthalen-1-yl)oxy)pyrimidin-2-yl)amino)-N-(2-morpholinoethyl)-5-(trifluoromethyl)benzamide] | 1.4 | – | 62.1 | 4.8
11 | 24 | 14 | – | – | 303 | 4190 | 2.6 | CC(C)(C)c1cc(NC(=O)Nc2ccc(Oc3ccnc(Nc4cc(OCCN5CCOCC5)cc(C(F)(F)F)c4)n3)c3ccccc23)n(-c2cccc(CP(C)(C)=O)c2)n1 [Example 61, 1-(3-(tert-Butyl)-1-(3-((dimethylphosphoryl)methyl)phenyl)-1H-pyrazol-5-yl)-3-(4-((2-((3-(2-morpholinoethoxy)-5-(trifluoromethyl)phenyl)amino)pyrimidin-4-yl)oxy)naphthalen-1-yl)urea] | 2.3 | – | 50.7 | 3.3
